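How tested: cells in 96-well plates exposed to compound for 48 hours at five concentrations. GI50 is the concentration that inhibits growth by half. TGI marks complete inhibition of growth.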
Key:
Test in all cases: inhibition of tumour cell growth, NCI panel, 48 h
[1] = test system: MDA-MB-231 breast
[2] = test system: NCI-H23 lung
[3] = test system: T-47D breast
[4] = test system: CAKI-1 renal
[5] = test system: HT29 colon
[6] = test system: A498 renal
[7] = test system: NCI-H226 lung
[8] = test system: MCF7 breast
[9] = test system: SF-295 CNS
[10] = test system: HCT-116 colon
[11] = test system: SF-539 CNS
[12] = test system: BT-549 breast
[13] = test system: RXF 393 renal
[14] = test system: OVCAR-5 ovarian
[15] = test system: DU-145 prostate
[16] = test system: SN12C renal
[17] = test system: M14 melanoma
[18] = test system: NCI-H522 lung
[19] = test system: HOP-92 NSCLC
[20] = test system: OVCAR-8 ovarian
[21] = test system: UACC-257 melanoma
[22] = test system: U251 CNS
[23] = test system: SK-OV-3 ovarian
[24] = test system: SW-620 colon
[25] = test system: HS 578T breast
[26] = test system: RPMI-8226 leukemia
[27] = test system: HCT-15 colon
[28] = test system: NCI/ADR-RES ovarian
[29] = test system: MDA-MB-435
[30] = test system: MDA-N
[31] = test system: MALME-3M melanoma
[32] = test system: UO-31 renal
[33] = test system: SNB-75 CNS
[34] = test system: SK-MEL-2 melanoma
[35] = test system: MOLT-4 leukemia
[36] = test system: HOP-62 NSCLC
[37] = test system: EKVX NSCLC
[38] = test system: SK-MEL-5 melanoma
[39] = test system: SF-268 CNS
[40] = test system: K-562 leukemia
[41] = test system: IGROV1 ovarian
[42] = test system: A549 NSCLC
[43] = test system: OVCAR-4 ovarian
[44] = test system: SK-MEL-28 melanoma
[45] = test system: OVCAR-3 ovarian
[46] = test system: HCC-2998 colon
[47] = test system: TK-10 renal
[48] = test system: PC-3 prostate
[49] = test system: SNB-19 CNS
[50] = test system: ACHN renal
[51] = test system: NCI-H460 lung
[52] = test system: COLO 205 colon
[53] = test system: KM12 colon
[54] = test system: CCRF-CEM leukemia
[55] = test system: 786-0 renal
[56] = test system: LOX IMVI melanoma
[57] = test system: HL-60(TB) leukemia
[58] = test system: UACC-62 melanoma

Structure (SMILES): CC=C(CBr)CCC(Br)C(C)(C)Cl (mixture of isomers)
- TGI [1]: > 10 µM
- TGI [2]: > 10 µM
- TGI [3]: > 10 µM
- TGI [4]: > 10 µM
- TGI [5]: > 10 µM
- TGI [6]: > 10 µM
- TGI [7]: > 10 µM
- TGI [8]: > 10 µM
- TGI [9]: > 10 µM
- TGI [10]: > 10 µM
- TGI [11]: > 10 µM
- TGI [12]: > 10 µM
- TGI [13]: > 10 µM
- TGI [14]: > 10 µM
- TGI [15]: > 10 µM
- TGI [16]: > 10 µM
- TGI [17]: > 10 µM
- TGI [18]: > 10 µM
- TGI [19]: > 10 µM
- TGI [20]: > 10 µM
- TGI [21]: > 10 µM
- TGI [22]: > 10 µM
- TGI [23]: > 10 µM
- TGI [24]: > 10 µM
- TGI [25]: > 10 µM
- TGI [26]: > 10 µM
- TGI [27]: > 10 µM
- TGI [28]: > 10 µM
- TGI [29]: > 10 µM
- TGI [30]: > 10 µM
- TGI [31]: > 10 µM
- TGI [32]: > 10 µM
- TGI [33]: > 10 µM
- TGI [34]: > 10 µM
- TGI [35]: > 10 µM
- TGI [36]: > 10 µM
- TGI [37]: > 10 µM
- TGI [38]: > 10 µM
- TGI [39]: > 10 µM
- TGI [40]: > 10 µM
- TGI [41]: > 10 µM
- TGI [42]: > 10 µM
- TGI [43]: > 10 µM
- TGI [44]: > 10 µM
- TGI [45]: > 10 µM
- TGI [46]: > 10 µM
- TGI [47]: > 10 µM
- TGI [48]: > 10 µM
- TGI [49]: > 10 µM
- TGI [50]: > 10 µM
- TGI [51]: > 10 µM
- TGI [52]: > 10 µM
- TGI [53]: > 10 µM
- TGI [54]: > 10 µM
- TGI [55]: > 10 µM

Structure (SMILES): COc1ccc(-c2cc(=O)c3cc(C)cnc3[nH]2)cc1
- TGI [1]: > 100 µM
- TGI [2]: > 100 µM
- TGI [56]: > 100 µM
- TGI [3]: > 100 µM
- TGI [4]: > 100 µM
- TGI [5]: 5.9 µM
- TGI [6]: 62.6 µM
- TGI [7]: 51.7 µM
- TGI [8]: > 100 µM
- GI50 [9]: 5.29 µM
- TGI [9]: > 100 µM
- GI50 [10]: 4.15 µM
- TGI [10]: > 100 µM
- TGI [11]: > 100 µM
- TGI [12]: 15 µM
- TGI [13]: > 100 µM
- TGI [14]: > 100 µM
- TGI [15]: > 100 µM
- TGI [16]: > 100 µM
- TGI [17]: 45.1 µM
- TGI [18]: 30.7 µM
- TGI [19]: > 100 µM
- TGI [20]: > 100 µM
- TGI [21]: > 100 µM
- GI50 [57]: 2.27 µM
- TGI [57]: 5.64 µM
- GI50 [22]: 4.2 µM
- TGI [22]: > 100 µM
- TGI [23]: > 100 µM
- TGI [24]: > 100 µM
- TGI [25]: > 100 µM
- TGI [26]: 45 µM
- TGI [27]: 19.8 µM
- TGI [28]: 23.5 µM
- TGI [29]: 5.53 µM
- GI50 [30]: 1.69 µM
- TGI [30]: 4.98 µM
- TGI [31]: > 100 µM
- TGI [32]: > 100 µM
- TGI [34]: > 100 µM
- TGI [35]: 40.9 µM
- TGI [36]: > 100 µM
- TGI [37]: > 100 µM
- GI50 [38]: 3.73 µM
- TGI [38]: > 100 µM
- TGI [39]: > 100 µM
- TGI [40]: 8.29 µM
- TGI [41]: > 100 µM
- TGI [42]: > 100 µM
- TGI [58]: > 100 µM
- TGI [43]: > 100 µM
- TGI [44]: > 100 µM
- TGI [46]: 85 µM
- TGI [47]: > 100 µM
- GI50 [48]: 5.32 µM
- TGI [48]: > 100 µM
- TGI [49]: > 100 µM
- TGI [50]: > 100 µM
- GI50 [51]: 4.08 µM
- TGI [51]: 36.5 µM
- TGI [52]: 23 µM
- TGI [53]: > 100 µM
- GI50 [55]: 5.1 µM
- TGI [55]: > 100 µM
